Consider two molecules from BindingDB's records for doi:10.1021/jm7014155 (Bryn Mawr College, 2008).

This test addresses Indoleamine 2,3-dioxygenase 1 (Homo sapiens, UniProt P14902). Briefly: Enzyme Inhibition Assay. The note with it: pH 6.5; 37 °C. The protocol:
The IC50 inhibition assays were performed in a 96-well microtiter plate format using purified recombinant IDO, which was added to the substrate, L-tryptophan (L-Trp), and the inhibitor. After the reaction, the product N-formylkynurenine was converted to kynurenine. The yellow color generated from reaction with kynurenine was measured at 490 nm using a microtiter plate reader. The data were analyzed using Graph Pad Prism 4 software (Graph Pad Software Inc.).

Chain of Indoleamine 2,3-dioxygenase 1 (P14902 whole entry): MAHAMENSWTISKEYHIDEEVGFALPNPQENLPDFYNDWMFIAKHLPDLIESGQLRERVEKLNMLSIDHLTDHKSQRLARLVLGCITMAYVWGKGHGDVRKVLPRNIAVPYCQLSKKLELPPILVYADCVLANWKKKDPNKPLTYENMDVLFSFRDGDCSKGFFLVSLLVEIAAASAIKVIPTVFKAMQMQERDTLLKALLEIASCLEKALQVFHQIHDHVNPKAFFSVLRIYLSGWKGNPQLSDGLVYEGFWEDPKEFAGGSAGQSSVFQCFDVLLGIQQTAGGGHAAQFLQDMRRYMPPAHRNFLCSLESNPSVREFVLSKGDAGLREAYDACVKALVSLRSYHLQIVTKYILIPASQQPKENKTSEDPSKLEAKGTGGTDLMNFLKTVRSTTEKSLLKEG

Take `O=C1CC(=O)c2ccccc2C1=O`: the IC50 was 675 µM.
On to `CC1=CC(=O)c2ccccc2C1=O` [Vitamin K3], for which inhibition was half-maximal at 1.1 µM (IC50).
